From PMC7489219 (Molecular Brain, 2020)
Where a name gives a salt, the structure may show the parent alone.

What follows are compounds tested on T1, primary mouse cortical neurons (assay: cells). Conditions: Cortical neurone, 20 h, read-out: % inhibition, inhibition of NMDA-induced cell death (protection score), 30 min pre-treatment.
T1 construct: primary cortical neurons, DIV 10
Design: Protection from NMDA-induced (30 uM, 10 min) neuronal death; Hoechst nuclear morphology by automated microscopy
How it was run: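 On DIV 10, primary mouse cortical neurons were given compound at 10 μM for 30 min at 37 °C, then 30 μM NMDA for 10 min, washed, and kept 20 h with compound. Dead cells were scored by nuclear morphology, and % protection was derived from survival relative to vehicle + NMDA and untreated controls.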

Row | Structure (SMILES) | inhibition at 10 µM
1 | CCn1cc(C(=O)O)c(=O)c2ccc(C)nc21 [Nalidixic acid (NegGram)] | -2.4%
2 | CC/C(=C(\c1ccccc1)c1ccc(OCCN(C)C)cc1)c1ccccc1 [Tamoxifen Citrate (Nolvadex)] | -8.21%
3 | COc1ccc(-c2cc(=O)c3c(O)cc(O[C@@H]4O[C@H](CO[C@@H]5O[C@@H](C)[C@H](O)[C@@H](O)[C@H]5O)[C@@H](O)[C@H](O)[C@H]4O)cc3o2)cc1O [Diosmin] | -0.0881%
4 | COc1ccc2c(c1)c(CC(=O)O)c(C)n2C(=O)c1ccc(Cl)cc1 [Indomethacin (Indocid, Indocin)] | 3.41%
5 | Nc1nc2c(c(=O)[nH]1)N(C=O)C(CNc1ccc(C(=O)N[C@@H](CCC(=O)O)C(=O)O)cc1)CN2 (stereo partly shown) [Leucovorin Calcium] | -10.9%
6 | O=C(/C=C/c1ccc(O)c(O)c1)O[C@@H]1C[C@](O)(C(=O)O)C[C@@H](O)[C@H]1O [Chlorogenic acid] | -2.16%
7 | CN(C)/N=N/c1nc[nH]c1C(N)=O [Dacarbazine (DTIC-Dome)] | -1.39%
8 | NS(=O)(=O)c1cc(C(=O)O)c(NCc2ccco2)cc1Cl [Furosemide (Lasix)] | 32.1%
9 | CCC(C)(C)c1ccc(CC(C)CN2C[C@@H](C)O[C@@H](C)C2)cc1 (stereo partly shown) [Amorolfine Hydrochloride] | -45.8%
10 | CN(C)C(=N)NC(=N)N [Metformin hydrochloride (Glucophage)] | 10.2%
11 | NS(=O)(=O)Cc1noc2ccccc12 [Zonisamide] | -5.91%
12 | C[C@@H]1O[C@@H](O[C@H]2[C@H](Oc3cc(O)c4c(c3)O[C@H](c3ccc(O)cc3)CC4=O)O[C@H](CO)[C@@H](O)[C@@H]2O)[C@H](O)[C@H](O)[C@H]1O [Naringin (Naringoside)] | -0.553%
13 | CC(=O)C1=C(O)C=C2Oc3c(C(C)=O)c(O)c(C)c(O)c3[C@@]2(C)C1=O [(+)-Usniacin (D-Usnic acid)] | -4.28%
14 | CC(=O)N[C@@H](CS)C(=O)O [Acetylcysteine] | 29%
15 | COc1ccc(/C=C/C(=O)Nc2ccccc2C(=O)O)cc1OC [Tranilast (SB 252218)] | -11.4%
16 | COC(=O)[C@@H]1[C@H]2C[C@H]3c4[nH]c5ccccc5c4CCN3C[C@@H]2CC[C@@H]1O [Yohimbine hydrochloride (Antagonil)] | 7.7%
17 | COc1cc(CNC(=O)CCCC/C=C/C(C)C)ccc1O [Capsaicin] | -2.28%
18 | CCCCC(=O)O[C@]1(C(=O)CO)[C@@H](C)C[C@H]2[C@@H]3CCC4=CC(=O)C=C[C@]4(C)[C@@]3(F)[C@@H](O)C[C@@]21C [Betamethasone valerate (Betnovate)] | 6.58%
19 | O=c1[nH]cnc2nc[nH]c12 [Hypoxanthine] | 1.08%
20 | CCOC(=O)c1ccc(C#Cc2ccc3c(c2)C(C)(C)CCS3)nc1 [Tazarotene (Avage)] | 38.1%
21 | C[C@@H]1O[C@@H](Oc2c(-c3cc(O)c(O)c(O)c3)oc3cc(O)cc(O)c3c2=O)[C@H](O)[C@H](O)[C@H]1O [Myricitrin (Myricitrine)] | -2.22%
22 | C#Cc1cccc(Nc2ncnc3cc(OCCOC)c(OCCO)cc23)c1 [OSI-420 (Desmethyl Erlotinib)] | -0.167%
23 | CC(C)NCC(O)COc1ccc(COCCOC(C)C)cc1 (stereo not shown) [Bisoprolol] | 10%

Row | Structure (SMILES) | inhibition at 10 µM
24 | Clc1ccc(COC(Cn2ccnc2)c2ccc(Cl)cc2Cl)cc1 (stereo not shown) [Econazole nitrate (Spectazole)] | -2.25%
25 | O=c1cccc2n1C[C@@H]1CNC[C@H]2C1 [Cytisine (Baphitoxine, Sophorine)] | -0.723%
26 | Cc1ccc(-n2[nH]c(C)c(N=Nc3cccc(-c4cccc(C(=O)O)c4)c3O)c2=O)cc1C [Eltrombopag (SB-497115-GR)] | 93.9%
27 | CC[C@H]1OC(=O)[C@H](C)[C@@H](O[C@H]2C[C@@](C)(OC)[C@@H](O)[C@H](C)O2)[C@H](C)[C@@H](O[C@@H]2O[C@H](C)C[C@H](N(C)C)[C@H]2O)[C@](C)(OC)C[C@@H](C)C(=O)[C@H](C)[C@@H](O)[C@]1(C)O [Clarithromycin (Biaxin, Klacid)] | -1.54%
28 | CN(C)CC/C=C1/c2ccccc2Sc2ccc(Cl)cc21 [Chlorprothixene] | -2.97%
29 | C[C@H](O)[C@H](O)[C@@H](O)[C@@H](O)C=O [L(+)-Rhamnose Monohydrate] | 0.562%
30 | CCOC(=O)N1CCC(=C2c3ccc(Cl)cc3CCc3cccnc32)CC1 [Loratadine] | -11.1%
31 | O=C(O)/C=C/c1ccc(Cn2ccnc2)cc1 [Ozagrel] | -9.99%
32 | CCCC(CCC)C(=O)O [Divalproex sodium] | 3.49%
33 | COc1ccc([C@H]2CNC(=O)C2)cc1OC1CCCC1 [S-(+)-Rolipram] | -1.23%
34 | CCC(C)n1ncn(-c2ccc(N3CCN(c4ccc(OC[C@H]5CO[C@](Cn6cncn6)(c6ccc(Cl)cc6Cl)O5)cc4)CC3)cc2)c1=O (mixture of isomers) [Itraconazole (Sporanox)] | 2.19%
35 | O=c1c(O)c(-c2ccc(O)c(O)c2)oc2cc(O)ccc12 [Fisetin (Fustel)] | -2.5%
36 | OC(Cn1cncn1)(Cn1cncn1)c1ccc(F)cc1F [Fluconazole] | 6.24%
37 | COc1ccc2cc3[n+](cc2c1OC)CCc1cc2c(cc1-3)OCO2 [Berberine Hydrochloride] | -2.08%
38 | Oc1cc2c(cc1O)[C@@H]1c3ccc(O)c(O)c3OC[C@]1(O)C2 [Hematoxylin (Hydroxybrazilin)] | 1.27%
39 | C[C@@H]1O[C@@H](OC[C@H]2O[C@@H](Oc3c(-c4ccc(OCCO)c(OCCO)c4)oc4cc(OCCO)cc(O)c4c3=O)[C@H](O)[C@@H](O)[C@@H]2O)[C@H](O)[C@H](O)[C@H]1O [Troxerutin] | 23.8%
40 | Nc1ccc(O)c(C(=O)O)c1 [Mesalamine (Lialda)] | 21.8%
41 | Nc1nc(F)nc2c1ncn2[C@@H]1O[C@H](CO)[C@@H](O)[C@@H]1O [Fludarabine (Fludara)] | 16.2%
42 | Cn1c(=O)c2c(ncn2CC(O)CO)n(C)c1=O (stereo not shown) [Dyphylline (Dilor)] | -0.361%
43 | COc1ccc2ccc(=O)oc2c1CC=C(C)C [Osthole (Osthol)] | -1.21%
44 | CN(C)C(=O)Oc1cccc([N+](C)(C)C)c1 [Neostigmine bromide (Prostigmin)] | -0.504%
45 | CN(C)c1nc(N(C)C)nc(N(C)C)n1 [Altretamine (Hexalen)] | -3.75%
46 | C[C@H]1O[C@H](O[C@H]2[C@H](O)[C@@H](O)[C@@H](O[C@@H]([C@H](O)[C@@H](O)C=O)[C@H](O)CO)O[C@@H]2CO)[C@H](O)[C@@H](O)[C@@H]1N[C@H]1C=C(CO)[C@@H](O)[C@H](O)[C@H]1O [Acarbose] | 4.12%

Row | Structure (SMILES) | inhibition at 10 µM
47 | Cc1nnc(C(=O)NC(C)(C)c2nc(C(=O)NCc3ccc(F)cc3)c(O)c(=O)n2C)o1 [Raltegravir (MK-0518)] | 8.86%
48 | O=c1oc2cc(O)ccc2s1 [Tioxolone] | -0.329%
49 | CC(C)(C)NC(=O)[C@H]1CC[C@H]2[C@@H]3CC[C@H]4NC(=O)C=C[C@]4(C)[C@H]3CC[C@]12C [Finasteride] | 59.6%
50 | CC(C)[C@@H](C)/C=C/[C@@H](C)[C@H]1CC[C@H]2C3=CC=C4C[C@@H](O)CC[C@]4(C)[C@H]3CC[C@]12C [Ergosterol] | -1.47%
51 | CN(C)CCOC(c1ccccc1)c1ccccc1 [Diphenhydramine HCl (Benadryl)] | 1.97%
52 | CC(C)Oc1ccc2c(=O)c(-c3ccccc3)coc2c1 [Ipriflavone] | -1.69%
53 | Nc1ccc(S(=O)(=O)Nc2ncccn2)cc1 [Sulfadiazine] | 17.4%
54 | NS(=O)(=O)c1cc2c(cc1Cl)NCNS2(=O)=O [Hydrochlorothiazide] | 8.57%
55 | C[C@H](N[C@@H](CCc1ccccc1)C(=O)O)C(=O)N1CCC[C@H]1C(=O)O [Enalaprilat dihydrate] | -4.34%
56 | CCN(CC)CCNC(=O)c1c(C)[nH]c(/C=C2\C(=O)Nc3ccc(F)cc32)c1C [Sunitinib Malate (Sutent)] | 1.4%
57 | Nc1ncn([C@H]2C[C@H](O)[C@@H](CO)O2)c(=O)n1 [Decitabine] | 11.3%
58 | CO/N=C(\C(=O)N[C@@H]1C(=O)N2C(C(=O)OCOC(=O)C(C)(C)C)=C(/C=C\c3scnc3C)CS[C@H]12)c1csc(N)n1 [Cefditoren pivoxil] | 8.16%
59 | CC[C@@H]([C@H](C)O)n1ncn(-c2ccc(N3CCN(c4ccc(OC[C@@H]5CO[C@@](Cn6cncn6)(c6ccc(F)cc6F)C5)cc4)CC3)cc2)c1=O [Posaconazole] | -12.5%
60 | COc1ccc(C(C)=O)c(O)c1 [Paeonol (Peonol)] | -2.06%
61 | COCCOC(=O)C1=C(C)NC(C)=C(C(=O)OC/C=C/c2ccccc2)C1c1cccc([N+](=O)[O-])c1 (stereo not shown) [Cilnidipine] | -16%
62 | NC(=O)c1cccnc1 [Nicotinamide (Niacinamide)] | -2.77%
63 | Cc1cn(-c2cc(NC(=O)c3ccc(C)c(Nc4nccc(-c5cccnc5)n4)c3)cc(C(F)(F)F)c2)cn1 [Nilotinib (AMN-107)] | -7.37%
64 | CO[C@H]1C[C@@H]2CC[C@@H](C)[C@@](O)(O2)C(=O)C(=O)N2CCCC[C@H]2C(=O)O[C@H]([C@H](C)C[C@@H]2CC[C@@H](OC(=O)C(C)(CO)CO)[C@H](OC)C2)CC(=O)[C@H](C)/C=C(\C)[C@@H](O)[C@@H](OC)C(=O)[C@H](C)C[C@H](C)/C=C/C=C/C=C/1C [Temsirolimus (Torisel)] | 1.56%
65 | CC(C)[C@H]1CC[C@H](C(=O)N[C@H](Cc2ccccc2)C(=O)O)CC1 [Nateglinide (Starlix)] | 42.4%
66 | Cc1ccc(NC(=O)c2ccc(CN3CCN(C)CC3)cc2)cc1Nc1nc(-c2cccnc2)cs1 [Masitinib (AB1010)] | -5.13%
67 | NC(=O)Cc1cccc(C(=O)c2ccccc2)c1N [Nepafenac] | -12.2%
